One experiment has as its system IL-4 production. Put plainly: IL-4 production inhibiting test in OVA-stimulated spleen cells of immunised mouse (ELISA). It counts as cell-based. Particulars: 72 h, spleen cells of OVA-immunised BALB/c-mouse, OVA 0.5 mg/ml, 3 days. On the procedure: Example 146: IL-4 and IL-5 production inhibiting test
A 6-weeks-old BALB/c-mouse (Nippon Charles River) was bred preparatively for 1 week and given at the day 0 and day 14 intraperitoneal injection of 100 µl PBS to give immunity which PBS contained 0.1 mg/ml of Ovalbumin(OVA) and 40 mg/ml of aluminum hydroxide. At the day 21 the spleen was taken out from the mouse. The spleen was dissected with a pincette in cooled PBS, passed through a mesh and subjected to centrifugation at 4 °C at 1,500 rpm for 5 minutes. The cells was added with 5 ml of 0.2% NaCI to destroy erythrocytes, and then was made isotonic by adding 5 ml of 1.6% of NaCl. After centrifugation at 4 °C, 1,500 rpm for 5 minutes, the cells were washed twice with 10 ml ofRPMI1640 culture medium. The obtained spleen cells were suspended in cRPMI1640 medium, and the number of the cells was measured by Tuerk dying. After being adjusted to 1 × 10^7 cells/ml, the cells were planted in 100 µl/well on a 96-well plate (FALCON). The cells were cultured at 37 °C under 5% CO2 atmosphere for about 4 hours. OVA was prepared to 10 mg/ml with cRPMI1640 culture medium and subjected to sterile filtration. The 10 mg/ml OVA was diluted with cRPMI1640 culture medium to give 1 mg/ml OVA. A compound to be tested which was dissolved in DMSO in at 1,000-fold concentration was diluted up to 500-fold with cRPMI1640 culture medium containing 1 mg/ml OVA and added in 100 µl/well to the cells which had been planted on the previously mentioned 96-well plate (final concentration of OVA: 0.5 mg/ml). As the controls, the solutions were made by diluting DMSO of the same volume as with the test compounds with cRPMI1640 culture medium containing 1 mg/ml OVA, and they were added to the cells. These cells were cultured at 37 °C under 5%CO2 atmosphere for 3 days. IL-4 and IL-5 in the culture supernatants after 3 days were quantitatively determined by ELISA method. IL-4 and IL-5 were quantitatively determined using IL-4 Development Kit (Genzyme Techne) and mouse IL-5 MiniKit (ENDOGEN), respectively. The production inhibiting rates of each tested compound against IL-4 are shown in Table 22, those against IL-5 in Table 23.
On the technique in general: In an ELISA, binding on a coated surface is turned into a signal by an enzyme label.

The next experiment concerns TNF-α production. Description: TNF-α production inhibiting test using human PBMC (LPS stimulus, ELISA). Particulars: LPS 10 ng/ml, 16 hours, ELISA of culture supernatants. It counts as cell-based. On the procedure:
Example 145: TNF-α production inhibiting test using human PBMC (peripheral blood mononuclear cells)
Preparation of human PBMC
The blood of a healthy person was taken with a vacuum blood-collecting tube (Nipro neotube) and diluted up to two-fold with physiological saline (Otsuka Pharmaceuticals). To the diluted blood was added 6% dextran T-500 (prepared after dissolution in physiological saline (Otsuka Pharmaceuticals) and sterilization with an autoclave) so as to make a final concentration of 1%. The solution was subjected to tumble mixing and allowed to stand at room temperature for 30 minutes to precipitate the erythrocytes. The supernatant was collected and subjected to centrifugation at 20 °C and at 1,500 rpm for 10 minutes. The cells were suspended in 3 ml of RPMI1640 culture medium (Asahi Technogllas) and overlaid on the solution surface of 3 ml Lymphoprep (NYCOMED). Further, with 1.5 ml of RPMI1640 culture medium being added to the tube which had contained the cell suspension liquid, the cells attached to the tube, which had remained uncollected, were suspended for collection and overlaid on the Lymphoprep previously mentioned. This operation was repeated again. After centrifugation at 20 °C and at 2,000 rpm for 30 minutes, there was collected a fraction of peripheral blood mononuclear cells present in the boundary surface between the Lymphoprep and the RPMI1640 culture medium. The cells were washed twice with 10 ml RPMI1640 culture medium to remove the Lymphoprep and then suspended in a RPMI1640 culture medium added with 10% bovine fetal serum (IRVINE SCIENTIFIC), 100 U/ml penicillin and 100 µg/ml streptomycin (hereinafter referred to as cRPMI1640 culture medium). The number of the cells was measured by Tuerk dying, and the cells, after adjustment to 3 × 10^6 cells/ml, were planted in 100 µl/well on a 96-well plate (FALCON). The cells were cultured at 37 °C under 5%CO2 atmosphere for about 5 hours.
Induction of TNF-α production by LPS stimulus
LPS (E.coli 0111:B4, DIFCO), which had been prepared to 10 mg/ml with water and kept at -20, was diluted to 100 µg/ml with cRPMI1640 culture medium and subjected to sterile filtration. The 100 µg/ml LPS was diluted with cRPMI1640 culture medium to prepare 20 ng/ml LPS. A compound to be tested which was dissolved in DMSO at 1,000-fold concentration was diluted to 500-fold with cRPMI1640 culture medium containing 20 ng/ml LPS and added in 100 µl/well to the cells which had been planted on the previously mentioned 96-well plate (final concentration of LPS: 10 ng/ml). For use as the control group, the solutions were made by diluting DMSO of the same volume as in the test compounds with cRPMI1640 culture medium containing 20 ng/ml LPS, and they were added to the cells. These cells were cultured at 37 °C under 5%CO2 atmosphere for 16 hours.
Determination of TNF-α activity (ELISA method)
To the 96-well plate the mouse anti-human TNF-α antibody (prepared to 2 µg/ml with Coating buffer*^1) was added so as to make 100 µl/well and allowed to stand at 4 °C overnight. After 5-times washing with Wash buffer*^2 (300µl/well), the Blocking buffer*^3 was added to the solutions, which were allowed to stand 37 °C for 2 hours. The culture supernatants were diluted up to 5-fold in the plate (supernatant 20 µl being added to 80 µl of cRPMI1640 culture medium). Simultaneously, for using for a calibration curve, a series of dilution of recombinant human TNF-α was prepared arid allowed to stand 37 °C for 1 hour. After 5-times washing with Wash buffer (300 µl /well), biotinylated rabbit anti-human TNF-α antibody (prepared to 0.25 µg/ml with Antibody diluent*^4) was added so as to make 100 µl /well and allowed to stand at 37 °C for 1 hour. After 5-times washing with Wash buffer (300 µl /well), Streptavidin-Horseradish peroxidase(prepared to 1:4000 with Antibody diluent) was added to make 100 µl /well and allowed to stand at 37 °C for 15 minutes. […]

Molecules are shown by their SMILES. pIC50: −log10 of the molar value.

Among the data in patent publication EP1229025A1, “NOVEL QUINAZOLINE DERIVATIVES” (Japan Energy Corporation, priority 1999, dated 2001) are IC50 values, retold here.

As usually defined, the pIC50 is the IC50 on a negative log10 scale, so that one unit is a factor of ten.

In the case of `O=[N+]([O-])c1cc2c(NCc3ccco3)ncnc2cc1N1CCNCC1` [Example 51, 4-[(2-furyl)methylamino]-6-nitro-7-(piperazin-1-yl)quinazoline], the pIC50 in the experiment with IL-4 production is 7.00.

Turning to `O=[N+]([O-])c1cc2c(NCCc3ccc(O)cc3)ncnc2cc1N1CCNCC1` [Example 80, 4-[2-(4-hydroxyphenyl)ethylamino]-6-nitro-7-(piperazin-1-yl)quinazoline], the pIC50 with TNF-α production is 5.60.

In the case of `Nc1ccc(CCNc2ncnc3cc(N4CCNCC4)c([N+](=O)[O-])cc23)cc1` [Example 81, 4-[2-(4-anilino)ethylamino]-6-nitro-7-(piperazin-1-yl)quinazoline], in the experiment with TNF-α production, the pIC50 is 5.60.

The molecule `CC(CNc1ncnc2cc(N3CCNCC3)c([N+](=O)[O-])cc12)c1ccccc1` (stereo not drawn) [Example 82, 4-(2-methyl-2-phenylethylamino)-6-nitro-7-(piperazin-1-yl)quinazoline] showed a pIC50 with TNF-α production of 5.14.

As to `O=[N+]([O-])c1cc2c(NC3CCN(Cc4ccccc4)CC3)ncnc2cc1N1CCNCC1` [Example 86, 4-[(1-benzyl-4-piperidyl)amino]-6-nitro-7-(piperazin-1-yl)quinazoline], the pIC50 with TNF-α production was 5.19.

For `O=[N+]([O-])c1cc2c(N3CCN(c4ccccc4)CC3)ncnc2cc1N1CCNCC1` [Example 98, 6-nitro-4-(4-phenylpiperazinyl)-7-piperazinylquinazoline], in the experiment on TNF-α production, the pIC50 is 5.68.

As to `COc1ccc(N2CCN(c3ncnc4cc(N5CCNCC5)c([N+](=O)[O-])cc34)CC2)cc1` [Example 99, 4-[(4-methoxyphenyl)piperazinyl]-6-nitro-7-piperazinylquinazoline], the pIC50 in the experiment on TNF-α production was 6.05.

In turn, `O=[N+]([O-])c1cc2c(N3CCN(c4ccc(Cl)cc4)CC3)ncnc2cc1N1CCNCC1` [Example 101, 4-[(4-chlorophenyl)piperazinyl]-6-nitro-7-piperazinylquinazoline] gave a pIC50 with TNF-α production of 5.85.

In the experiment with TNF-α production, `Fc1ccc(CNc2ncnc3cc(N4CCNCC4)c(F)cc23)cc1` [Example 113, 6-fluoro-4-(4-fluorobenzylamino)-7-(piperazin-1-yl)quinazoline] gave a pIC50 of 6.05.

With `Fc1cc2c(NCc3ccc4c(c3)OCO4)ncnc2cc1N1CCNCC1` [Example 114, 6-fluoro-4-[3,4-(methylenedioxy)benzylamino]-7-(piperazin-1-yl)quinazoline], the pIC50 with TNF-α production is 6.22.

Take `Fc1cc2c(Nc3ccc4c(c3)OCO4)ncnc2cc1N1CCNCC1` [Example 116, 6-fluoro-4-[(3,4-methylenedioxy)anilino]-7-(piperazin-1-yl)quinazoline]: in the experiment with TNF-α production, the pIC50 was 5.52.

`Fc1ccc(CCNc2ncnc3cc(N4CCNCC4)c(F)cc23)cc1` [Example 117, 6-fluoro-4-[2-[(4-fluoro)phenyl]ethylamino]-7-(piperazin-1-yl)quinazoline] showed a pIC50 in the experiment on TNF-α production of 5.33.

For the molecule `Fc1cc2c(NCCc3ccc4c(c3)OCO4)ncnc2cc1N1CCNCC1` [Example 118, 6-fluoro-4-[2-[(3,4-methylenedioxy)phenyl]ethylamino]-7-(piperazin-1-yl)quinazoline], the pIC50 in the experiment with TNF-α production is 5.66.

The molecule `Fc1ccc(CCCNc2ncnc3cc(N4CCNCC4)c(F)cc23)cc1` [Example 119, 6-fluoro-4-[3-[(4-fluoro)phenyl]propylamino]-7-(piperazin-1-yl)quinazoline] showed a pIC50 in the experiment with TNF-α production of 5.64.

In the experiment on TNF-α production, `Fc1cc2c(NCCCc3ccc4c(c3)OCO4)ncnc2cc1N1CCNCC1` [Example 120, 6-fluoro-4-[3-[(3,4-methylenedioxy)phenyl]propylamino]-7-(piperazin-1-yl)quinazoline] had a negative-log IC50 (pIC50) of 5.70.

In turn, `Fc1cc2c(NCc3ccc4c(c3)OCCO4)ncnc2cc1N1CCNCC1` [Example 121, 4-[(3,4-ethylenedioxy)benzylamino]-6-fluoro-7-(piperazin-1-yl)quinazoline] showed a pIC50 in the experiment with TNF-α production of 5.60.

`CN(Cc1ccc2c(c1)OCO2)c1ncnc2cc(N3CCNCC3)c(F)cc12` [Example 122, 6-fluoro-4-[[N-methyl-N'-(3,4-methylenedioxybenzyl)]amino]-7-(piperazin-1-yl)quinazoline]: the pIC50 in the experiment with TNF-α production was 6.22.

With `O=[N+]([O-])c1cc2c(Nc3ccc(F)cc3)ncnc2cc1N1CCNCC1` [Example 123, 4-[(4-fluoro)anilino]-6-nitro-7-(piperazin-1-yl)quinazoline], the pIC50 in the experiment with TNF-α production was 6.22.

With `O=[N+]([O-])c1cc2c(Nc3ccc4c(c3)OCO4)ncnc2cc1N1CCNCC1` [Example 124, 4-[(3,4-methylenedioxy)anilino]-6-nitro-7-(piperazin-1-yl)quinazoline], the negative logarithm of the IC50 (pIC50) in the experiment with TNF-α production is 5.77.

Molecule `O=[N+]([O-])c1cc2c(NCCc3ccc4c(c3)OCO4)ncnc2cc1N1CCNCC1` [Example 125] had a negative-log IC50 (pIC50) in the experiment on TNF-α production of 5.48.

Molecule `O=[N+]([O-])c1cc2c(NCCCc3ccc(F)cc3)ncnc2cc1N1CCNCC1` [Example 126, 4-[3-[(4-fluoro)phenyl]propylamino]-6-nitro-7-(piperazin-1-yl)quinazoline] gave a negative-log IC50 (pIC50) in the experiment with TNF-α production of 6.15.

In turn, `O=[N+]([O-])c1cc2c(NCCCc3ccc4c(c3)OCO4)ncnc2cc1N1CCNCC1` [Example 127, 4-[3-[(3,4-methylenedioxy)phenyl]propylamino]-6-nitro-7-(piperazin-1-yl)quinazoline] gave a pIC50 in the experiment with TNF-α production of 6.30.

In the experiment with TNF-α production, `O=[N+]([O-])c1cc2c(NCc3ccc(F)c(F)c3)ncnc2cc1N1CCNCC1` [Example 128, 4-[(3,4-difluoro)benzylamino]-6-nitro-7-(piperazin-1-yl)quinazoline] showed a pIC50 of 6.15.

Molecule `O=[N+]([O-])c1cc2c(NCc3ccc4c(c3)OCCO4)ncnc2cc1N1CCNCC1` [Example 130, 4-[(3,4-ethylenedioxy)benzylamino]-6-nitro-7-(piperazin-1-yl)quinazoline] had a negative-log IC50 (pIC50) in the experiment on TNF-α production of 5.60.
